Drawing on ChEMBL document CHEMBL5226385, “The Antiangiogenic and Antitumor Effects of Scoparasin B in Non-Small-Cell Lung Cancer” (J Nat Prod, 2023), this text covers Activity and inhibition for one molecule.

Calls of active or inactive are those of the source. The rule behind the calls is not given here.

Test [1] deals with HUVEC. The test is described as follows: Antiangiogenic activity against human HUVEC cells assessed as inhibition of capillary tube-like structure formation incubated for 6 hrs by Matrigel based analysis. The test is classed as functional, cell-based. Particulars: dose 5-20 nM.
Test [2] deals with HUVEC. The test is described as follows: Downregulation of VEGFR2 protein expression in human HUVEC cells at 5 to 15 nM incubated for 36 hrs by western blot analysis. The class given is functional, cell-based. Particulars: dose 5-15 nM. In general terms: Immunoblotting shows a protein as a band on a membrane.
Test [3] deals with NCI-H1299. The test is described as follows: Downregulation of MMP9 protein expression in human NCI-H1299 cells at 5 to 15 nM incubated for 24 hrs by western blot analysis. As to conditions: dose 5-15 nM. The test is classed as functional, cell-based.
In test [4] the test system is Mus musculus. Nature of the test: Downregulation of VEGF-A protein expression in tumor of BALB/c nude mouse xenografted with human NCI-H1299 cells at 0.75 to 1.5 mg/kg, ip administered every other day for 20 days by immunohistochemical analysis. Particulars: dose 0.75-1.5 mg/kg, time 20.0 day. The class given is functional, organism-based. A general note: A xenograft is tissue or cells of one species grown in another, often human tumour cells in immunodeficient mice.

Take `COc1ccc(C[C@@H]2NC(=O)[C@@]34OC(=O)O/C=C/[C@@](C)(O)C(=O)[C@@H](C)C/C=C/[C@H]3[C@H](O)[C@](C)(O)[C@@H](C)[C@@H]24)cc1` [SCOPARASIN B]: the Activity entry in test [1] was “Dose-Dependent Effect”. For the same molecule, in test [2], the inhibition result is “inactive”. For the same molecule, the inhibition entry in test [3] and in test [4] was “Active” in each case.
